Laboratory results as given in paper PMC6131501, “Urate transporter inhibitor lesinurad is a selective peroxisome proliferator-activated receptor gamma modulator (sPPARγM) in vitro” (Scientific Reports, 2018).
Several values for one entry are separate records, joined by “and”; a condition that tells them apart may be missing. Equal values may be shown once. Read-outs that look alike come from different tables or passages of the source.

Columns and labels:
[1] = biological target: T1, PPARγ (Homo sapiens, UniProt P37231); assay: Gal4 hybrid reporter gene assay PPARγ; type: cell-based
T1 construct: expressed in transfected cells; host or cells: HEK293T
T1 sequence (P37231 238-503 limits assumed): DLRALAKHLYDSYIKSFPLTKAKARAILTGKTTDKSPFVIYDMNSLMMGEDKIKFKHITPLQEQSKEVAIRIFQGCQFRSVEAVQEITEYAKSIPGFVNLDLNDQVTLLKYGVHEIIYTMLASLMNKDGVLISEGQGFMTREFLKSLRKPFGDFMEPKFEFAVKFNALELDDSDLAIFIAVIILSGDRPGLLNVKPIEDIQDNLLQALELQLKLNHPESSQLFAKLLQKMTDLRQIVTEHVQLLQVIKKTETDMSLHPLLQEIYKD
From the text: (§1) These in vitro test systems are based on a constitutively expressed hybrid receptor composed of the ligand binding domain of the respective human nuclear receptor and the DNA binding domain of the yeast receptor Gal4. A Gal4-inducible firefly luciferase serves as reporter gene and a constitutively expressed renilla luciferase is used for normalization of transfection efficacy and internal toxicity control[18],[19]. […] The Gal4-fusion receptor plasmids pFA-CMV-hPPARα-LBD[50], pFA-CMV-hPPARγ-LBD[50], pFA-CMV-hPPARδ-LBD[50], pFA-CMV-hLXRα-LBD[51], pFA-CMV-hLXRβ-LBD[51], pFA-CMV-hRXRα-LBD[52], pFA-CMV-hRXRβ-LBD[52], pFA-CMV-hRXRγ-LBD[52], pFA-CMV-hRARα-LBD[52], pFA-CMV-hRARβ-LBD[52], pFA-CMV-hRARγ-LBD[52], pFA-CMV-hFXR-LBD[53], pFA-CMV-hVDR-LBD[52], pFA-CMV-hCAR-LBD[52] and pFA-CMV-hPXR-LBD[52] coding for the hinge region and ligand binding domain (LBD) of the canonical isoform of the respective nuclear receptor have been reported previously. pFR-Luc (Stratagene) was used as reporter plasmid and pRL-SV40 (Promega) for normalization of transfection efficiency and cell growth.
(§2) HEK293T cells were grown in DMEM high glucose, supplemented with 10% FCS, sodium pyruvate (1 mM), penicillin (100 U/mL) and streptomycin (100 μg/mL) at 37 °C and 5% CO2. The day before transfection, HEK293T cells were seeded in 96-well plates (3·10^4 cells/well). Before transfection, medium was changed to Opti-MEM without supplements. Transient transfection was carried out using Lipofectamine LTX reagent (Invitrogen) according to the manufacturer’s protocol with pFR-Luc (Stratagene), pRL-SV40 (Promega) and the corresponding Gal4-fusion nuclear receptor plasmid. 5 h after transfection, medium was changed to Opti-MEM supplemented with penicillin (100 U/mL), streptomycin (100 μg/mL), now additionally containing 0.1% DMSO and the respective test compound or 0.1% DMSO alone as untreated control. Each concentration was tested in duplicates and each experiment was repeated independently at least three times. Following overnight (12-14 h) incubation with the test compounds, cells were assayed for luciferase activity using Dual-Glo™ Luciferase Assay System (Promega) according to the manufacturer’s protocol. Luminescence was measured with an Infinite M200 luminometer (Tecan Deutschland GmbH). […] Fold activation was obtained by dividing the mean RLU of a test compound at a respective concentration by the mean RLU of untreated control.

[2] = system: CYP3A4; design: method as in PMID 28067999; conditions: cited from earlier work
[3] = cited from earlier work; for peak plasma levels: oral dose of 200 mg
[4] = system: urate transporter 1 (URAT1); design: method as in PMID 27716403; conditions: cited from earlier work
[5] = biological target: T2, recombinant PPARγ ligand binding domain (Homo sapiens, UniProt P37231); assay: Isothermal titration calorimetry (ITC)
T2 sequence (P37231 238-503 limits assumed): T1 sequence (P37231 238-503 limits assumed)
Procedure: To confirm direct modulation of PPARγ by lesinurad, we analyzed their interaction by isothermal titration calorimetry (ITC). Due to limited solubility of lesinurad, recombinant PPARγ ligand binding domain (LBD) protein was (reversely) titrated to the drug.
Isothermal titration calorimetry (ITC) was conducted on an Affinity ITC (TA Instruments Affinity ITC). Recombinant PPARγ ligand binding domain protein (138 μM) and lesinurad (40 μM) were each dissolved in a HEPES buffer (25 mM; adjusted to pH 7.5 with KOH; further containing 150 mM KF, 10% glycerol (w/w), 1% DMSO (v/v) and 5 mM DTT). The ITC instrument was adjusted to a temperature of 25 °C and the stirring rate was set at 75 rpm. 190 μL lesinurad solution were filled into the reaction cell and PPARγ ligand binding domain solution was titrated in 41 injections. […] An interval of 200 s was maintained between individual injections. The heats of dilution resulting from titrating PPARγ ligand binding domain protein solution into the buffer solution were recorded in an additional ITC run and subtracted from the raw ITC data obtained for lesinurad.
ITC raw data was analyzed using NanoAnalyze software package (version 3.7.5). An independent binding model was used to fit the reaction enthalpy (ΔH), binding affinity constant (Kd), and stoichiometry (n). Free energy change (ΔG) was calculated from the equation ΔG = −RT ln K and the entropy (ΔS) was calculated from ΔG = ΔH−TΔS.

[6] = biological target: T3, PPARα (Homo sapiens, UniProt Q07869); assay: Gal4 hybrid reporter gene assay PPARα; type: cell-based
T3 construct: expressed in transfected cells; host or cells: HEK293T
T3 sequence (Q07869 239-466 limits assumed): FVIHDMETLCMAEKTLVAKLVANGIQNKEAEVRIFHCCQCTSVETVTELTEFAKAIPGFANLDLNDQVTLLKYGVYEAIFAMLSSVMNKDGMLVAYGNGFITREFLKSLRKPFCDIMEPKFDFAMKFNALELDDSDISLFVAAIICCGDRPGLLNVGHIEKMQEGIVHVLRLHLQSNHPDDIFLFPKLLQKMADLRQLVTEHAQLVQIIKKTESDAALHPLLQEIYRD
From the text: as §1, §2

[7] = Gal4 hybrid reporter, HEK293T, 12-14 h, mean ± SEM, at least three experiments

O=C(O)CSc1nnc(Br)n1-c1ccc(C2CC2)c2ccccc12 [lesinurad]
Gal4-PPARγ transactivation ([1]; 30 μM): robustly transactivated
EC50 [1, 7]: 18.5 ± 0.7 µM
CYP3A4 induction [2]: CYP3A4 inducer
free concentration ([3]; free plasma concentration after protein binding): 300 to 600 nM
peak plasma levels ([3]; ref 40): 15 µM
peak plasma levels ([3]; ref 41): 17 µM
mean peak plasma levels ([3]; single 600 mg oral dose, healthy men): 22 µg/mL
IC50 [4]: 3.5 µM
Kd ([5]; 25 °C, PPARγ LBD titrated to drug, independent binding model): 1.3 µM
ΔS ([5]; 25 °C, calculated from ΔG = ΔH−TΔS): 27 J/mol·K and 26,99 J/mol·K
n (stoichiometry) ([5]; value printed in the picture of Fig. 4): 0,987
Gal4-PPARα transactivation ([6]; 30 μM, compared with PPARγ): lower efficacy
EC50 [6, 7]: 20.8 ± 0.7 µM
PPARα activation efficacy ([6]; vs. 1 µM of PPARα agonist GW7647): 13.5 ± 0.5%
